From patent publication US20260234150A1, “COMPOUND FOR INHIBITING NLRP3, PREPARATION METHOD, AND USE” (DOVETREE MEDICINES UNUS, INC., priority 2023, published 2026)

Assays:
[1] = tested on: IL-1β secretion of THP-1 cells; experiment: Effect of NLRP3 inhibitor on IL-1β secretion of THP-1 cells (AlphaLISA); type: cell-based; details: Homo sapiens; PMA, LPS and Nigericin stimulated THP-1 cells, IL-1β in supernatant; read-out: IC50 (nM), THP-1 cells to detect NLRP3 inhibitors
Protocol: This experiment used the PerkinElmer AlphaLISA_human_IL1β kit (AL220 C/F). The detection buffer was RPMI-1640+10FBS. AlphaLISA Immunoassay Buffer, AlphaLISA Anti-IL1β Acceptor beads, Streptavidin (SA)-coated Donor beads, and Biotinylated Antibody Anti-IL1β were all included in the kit.
The density of THP1 cells was adjusted to 4×10^5 cells/mL, PMA (final concentration 50 nM) was added, inoculated into 96-well flat-bottom plates at 200 μL/well, and stimulated overnight at 37° C., 5% CO2 (try to <16h). The next day, the supernatant was discarded, and the flat washed twice with DPBS ([…]/time). Then LPS solution (final concentration of 100 ng/ml) was added at 198 μL/well, incubated at 37° C., 5% CO2 for 3h. 1 μL of the corresponding concentration of compounds was added to each well according to the experimental MAP, incubated at 37° C., 5% CO2 for 1 h. 1 μL Nigericin (final concentration of […]) was added to each well, incubated overnight at 5% CO2 (>18h). On the third day, 5 μL of supernatant was taken, diluted 20 times, and the content of IL-Iβ in the supernatant was detected by Human Interleukin 1 beta (IL1β) Kit. Envision was used to read the AlphaLISA test value of Ex=680/[…]. GraphPad Prism 9.5.0 was used to analyze the data, and the IC50 value of the compound for IL-Iβ antagonism was fitted by four-parameter Logistic.

[2] = target: T1, His6-Flag-TEV-NLRP3 (134-1036) (Homo sapiens, UniProt Q96P20); experiment: NLRP3 fluorescence polarization (FP) binding assay, competition with probe NP3-301; details: competition with NP3-301 for binding to NLRP3 (134-1036), 30 nM protein
T1 construct: fused on or other part: N-terminal His6 tag, Flag tag and TEV cleavage site
T1 sequence (Q96P20 134-1036 limits assumed): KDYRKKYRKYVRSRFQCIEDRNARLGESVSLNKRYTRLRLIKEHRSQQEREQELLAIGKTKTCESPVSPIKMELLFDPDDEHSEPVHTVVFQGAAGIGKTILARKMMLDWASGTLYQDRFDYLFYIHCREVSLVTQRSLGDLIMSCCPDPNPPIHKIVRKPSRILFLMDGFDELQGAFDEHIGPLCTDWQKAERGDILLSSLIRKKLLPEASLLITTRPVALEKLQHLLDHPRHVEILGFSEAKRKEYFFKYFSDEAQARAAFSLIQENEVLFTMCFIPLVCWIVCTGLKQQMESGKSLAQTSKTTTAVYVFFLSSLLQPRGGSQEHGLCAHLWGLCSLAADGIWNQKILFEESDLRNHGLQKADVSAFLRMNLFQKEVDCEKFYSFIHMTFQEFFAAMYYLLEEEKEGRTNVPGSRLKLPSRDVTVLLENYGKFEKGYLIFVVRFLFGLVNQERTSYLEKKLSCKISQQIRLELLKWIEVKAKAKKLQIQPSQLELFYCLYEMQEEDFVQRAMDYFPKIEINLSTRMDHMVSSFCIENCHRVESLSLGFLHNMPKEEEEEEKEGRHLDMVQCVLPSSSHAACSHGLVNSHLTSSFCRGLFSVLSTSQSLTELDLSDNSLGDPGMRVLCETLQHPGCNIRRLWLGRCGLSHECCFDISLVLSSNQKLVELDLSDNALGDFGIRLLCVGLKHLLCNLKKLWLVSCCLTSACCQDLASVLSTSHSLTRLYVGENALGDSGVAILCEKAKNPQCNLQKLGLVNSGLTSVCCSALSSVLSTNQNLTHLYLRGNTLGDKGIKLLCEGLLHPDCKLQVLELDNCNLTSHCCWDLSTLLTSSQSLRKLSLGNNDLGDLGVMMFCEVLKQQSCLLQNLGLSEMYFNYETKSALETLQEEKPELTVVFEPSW
Protocol: This experiment uses fluorescence polarization technology to detect and evaluate the binding assay.
The fluorescent probe used in this assay is the compound NP3-301 in the Journal of Molecular Biology (2021) 433, 167309, which was synthesized with reference to this literature.
His6-Flag-TEV-NLRP3 (134-1036) protein (SEQ NO. 1) was purchased from Kaihuiruizhi Biotech (Shanghai) Co., Ltd. (ChemPartner), and was customed for expression.
Prepare 1× assay buffer: 50 mM Hepes, pH 7.4, 150 mM NaCl, 2.5 mM MgCl2, 0.005% Tween-20, 1 mM TCEP, 100 μM ATP.
First, 2.5 μL of 4× compound solution was added to a black shallow 384-well plate (Greiner, 784076), the shallow well plate was sealed, and centrifuged at 1000 rpm for 1 min; then 2× NLPR3 protein solution (final concentration of 30 nM) was added, the shallow well plate was sealed, centrifuged at 1000 rpm for 1 min, and incubated at room temperature for 60 min. Finally, 2.5 μL of 4× NP3-301 (final concentration of 0.5 nM) was added, the shallow well plate was sealed, centrifuged at 1000 rpm for 1 min, and incubated at room temperature for 30 min. Envision was used to read the fluorescence polarization values of λex=485+20 nm and kem=535+25 nm. GraphPad Prism 9.5.0 was used to analyze the data, and the IC50 value of the competition between the compound and NP3-301 for binding to His6-Flag-TEV-NLRP3 (134-1036) was fitted by four-parameter logistic. The compounds of the present disclosure have good NLRP3 binding activity, and the test results of some representative compounds are shown in Table 1.

[3] = tested on: iodoacetic acid (MIA)-induced SD rat knee osteoarthritis model; experiment: Iodoacetic acid (MIA)-induced SD rat knee osteoarthritis model; type: in vivo, SD rats; details: 30 mg/kg orally once a day from Day 7 to Day 42
Protocol: Purpose: Evaluate the efficacy of MCC950 (Positive reference compound) and compound 111 of the present disclosure on iodoacetic acid (MIA)-induced SD rat knee osteoarthritis model.
Experimental materials: Experimental male SD rats, 4 weeks old.
Model induction began after the experimental animals were adapted to the animal environment for 7 days. Day 0, the rats were anesthetized, the hair around the left knee joint was removed, and the skin was disinfected. The left leg was flexed 90° to expose the patellar platform. The depression in the middle of the platform was touched by hand to find the femoral condyle, patella and ligament. The syringe needle was inserted from the bottom of the patella on both sides of the patellar ligament to the direction of the femoral condyle. When a clear sense of empty space was felt, 50 μL of iodoacetic acid solution was injected. Day 7 Grouping was performed according to the width of the knee joint on the induced side. The groups were: normal control group (healthy control without modeling, 5% DMSO+10% Solutol+85% Saline), model blank control group (5% DMSO+10% Solutol+85% Saline), MCC950 30 mg/kg, and compound 111 of the present disclosure 30 mg/kg. Starting from Day 7, the normal control group and the model blank control group were given the solvent (5% DMSO+10% Solutol+85% Saline) orally once a day, and the other groups were given the corresponding compounds orally once a day until the end of the administration on Day 42. The knee joint width and body weight of the rats were measured once on Day 7, 14, 21, 28, 35, and 42.

SMILES | IC50 [1] [nM] | IC50 [2] [nM] | body weight of the rats [3] | widening of the knee joints (knee joint width) ([3]; compared with model blank control group, 21 days to 42 days after modeling)
Cc1cc(C(F)(F)F)cc(O)c1-c1ccc2oc(N3CCN(S(=O)(=O)C4CC4)CC3)nc2n1 [Compound 392] | < 50 | ≤ 100 | – | –
CCS(=O)(=O)N1CCN(c2nc3nc(-c4c(C)cc(C(F)(F)F)cc4O)ccc3o2)C[C@@H]1C [Compound 394] | 50 to 100 | ≤ 100 | – | –
CCN1C[C@H](F)C[C@@H](Nc2nc3nc(-c4c(C)cc(C(F)(F)F)cc4O)ccc3o2)C1 [Compound 397] | 100 to 500 | ≤ 100 | – | –
Cc1cc(C(F)(F)F)cc(O)c1-c1ccc2oc(N[C@@H]3CCCN(C4CC4)C3)nc2n1 [Compound 399] | < 50 | ≤ 100 | – | –
Cc1cc(C(F)(F)F)cc(O)c1-c1ccc2oc(N[C@@H]3CCCN(C(C)C)C3)nc2n1 [Compound 400] | < 50 | ≤ 100 | – | –
Cc1cc(C(F)(F)F)cc(O)c1-c1ccc2oc(NC[C@@H](C)O)nc2n1 [Compound 413] | 50 to 100 | ≤ 100 | – | –
Cc1cc(C(F)(F)F)cc(O)c1-c1ccc2nc(N3CCS(=O)(=O)CC3)nn2n1 [Compound 422] | 100 to 500 | ≤ 100 | – | –
Cc1cc(C(F)(F)F)cc(O)c1-c1ccc2nc(N3CCOCC3)nn2n1 [Compound 423] | 100 to 500 | ≤ 100 | – | –
Cc1cc(C(F)(F)F)cc(O)c1-c1ccn2nc(N3CCOCC3)nc2n1 [Compound 426] | < 50 | ≤ 100 | – | –
Cc1cc(C(F)(F)F)cc(O)c1-c1cc(C)n2nc(N3CCOCC3)nc2n1 [Compound 440] | 50 to 100 | ≤ 100 | – | –
CC(=O)NC[C@@H]1COCCN1c1nc2nc(-c3c(C)cc(C(F)(F)F)cc3O)cc(C)n2n1 [Compound 441] | < 50 | ≤ 100 | – | –
CC(=O)NC[C@@H]1COCCN1c1nc2c(C)cc(-c3c(C)cc(C(F)(F)F)cc3O)nn2n1 [Compound 442] | < 50 | ≤ 100 | – | –
CC(=O)N1CCOC[C@H]1CNc1nc2nc(-c3c(C)cc(C(F)(F)F)cc3O)cc(C)c2o1 [Compound 451] | 50 to 100 | ≤ 100 | – | –
CC(C)(O)c1coc(S(=O)(=O)NC(=O)Nc2c3c(cc4c2CCC4)CCC3)c1 [MCC950] | – | – | without affecting the body weight of the rats | could significantly inhibit the widening of the knee joints

Further lines, with some results ahead:

IC50 [1] [nM] | IC50 [2] [nM] | SMILES | body weight of the rats [3] | widening of the knee joints (knee joint width) ([3]; compared with model blank control group, 21 days to 42 days after modeling)
< 50 | ≤ 100 | Cc1cc(C(F)(F)F)cc(O)c1-c1ccc2oc(N[C@@H]3CCCN(CCO)C3)nc2n1 [Compound 404] | – | –
< 50 | ≤ 100 | Cc1cc(C(F)(F)F)cc(O)c1-c1cc(C)c2nc(N3CCOCC3)nn2n1 [Compound 424] | – | –
< 50 | ≤ 100 | CCN1CCC[C@@H](Nc2nc3ccc(-c4c(C)cc(C(F)(F)F)cc4O)nn3n2)C1 [Compound 439] | – | –
< 50 | ≤ 100 | Cc1cc(C(F)(F)F)cc(O)c1-c1cc(C)n2nc(N[C@@H]3CCCN(C)C3)nc2n1 [Compound 443] | – | –
< 50 | ≤ 100 | Cc1cc(C(F)(F)F)cc(O)c1-c1ccn2nc(N[C@@H]3CCCN(C)C3)nc2n1 [Compound 444] | – | –
< 50 | ≤ 100 | Cc1cc(C(F)(F)F)cc(O)c1-c1ccc2nc(N[C@@H]3CCCN(C)C3)nn2n1 [Compound 445] | – | –
< 50 | ≤ 100 | Cc1cc(C(F)(F)F)cc(O)c1-c1cc(C)c2nc(N[C@@H]3CCCN(C)C3)nn2n1 [Compound 446] | – | –
< 50 | ≤ 100 | CCN1CCC[C@@H](Nc2nc3c(C)cc(-c4c(C)cc(C(F)(F)F)cc4O)nn3n2)C1 [Compound 447] | – | –
< 50 | ≤ 100 | CCN1CCC[C@@H](Nc2nc3nc(-c4c(C)cc(C(F)(F)F)cc4O)ccn3n2)C1 [Compound 448] | – | –
< 50 | ≤ 100 | Cc1cc(C(F)(F)F)cc(O)c1-c1cc(C)c2nc(N[C@@H]3CCCN(CCO)C3)nn2n1 [Compound 456] | – | –
< 50 | ≤ 100 | Cc1cc(C(F)(F)F)cc(O)c1-c1cc(C)n2nc(N[C@H]3CCCN(CCO)C3)nc2n1 [Compound 460] | – | –
< 50 | ≤ 100 | CCN1CCC[C@H](Nc2nc3nc(-c4c(C)cc(C(F)(F)F)cc4O)cc(C)n3n2)C1 [Compound 462] | – | –
